The values below are quoted from earlier work in patent publication US10238678B2, “Therapeutic methods” (GlaxoSmithKline LLC, priority 2011, dated 2019).

Take `NC(=O)c1ncn([C@@H]2O[C@H](CO)[C@@H](O)[C@H]2O)n1` [Ribavirin]: the “patients with significant hemolysis” value (currently recommended doses) is given as 10-20%. For the same compound, the teratogenicity and embryotoxicity entry (in vivo) was “teratogenic and embryotoxic”.
